Results on ten compounds are retold here after patent publication US20260272924A1, “ISOINDOLINE DERIVATIVE, BENZOINDOLE DERIVATIVE AND USE THEREOF” (SHANGHAI HELIOSON PHARMACEUTICAL CO., LTD., priority 2023, published 2026).

By IC50 is commonly meant the concentration needed to halve the response being measured. Read a low IC50 as inhibition by little substance.

The subject of the assay is NCI-H929 multiple myeloma cells. As to the kind of experiment: Cell Titer-GLO (CTG) assay for proliferation of NCI-H929 cells. It is filed as cell-based. Particulars: Homo sapiens, 72 hours. As for the experimental part:
1. Experimental objective: To determine inhibitory activities of compounds on NCI-H929 multiple myeloma cells.
NCI-H929 cells, purchased from Nanjing Cobioer Biotechnology Co., Ltd, were cultured in RPM11640 (Viva; C3010-0500) medium containing 10% fetal bovine serum (Viva, C04002-500) and 1% of penicillin-streptomycin at 37° C. with 5% of C02 and saturated humidity conditions.
The cells in logarithmic growth phase were plated at 5000 cells per well of a 96-well plate and after overnight incubation, compounds at 0.00512 nM, 0.0256 nM, 0.128 nM, 0.64 nM, 3.2 nM, 16 nM, 80 nM, and 400 nM were dosed into the plate with each dose in 2 duplicate wells. Cells were incubated at 37° C., 5% CO2 for 72 hours. After the incubation, the plate was placed at room temperature for half an hour, and then 50 μL of Cell Titer-Glo® (Promega, G7573) was added. The plate was placed on a shaker for uniform mixing for 2 minutes and was placed in the dark at room temperature for 10 minutes. The luminance signal was measured using SpectraMax Paradigm (Molecular Devices).
Cell activity inhibition rate (%)=1 00−(RLUcompound−RLUblank)/(RLUcontrol−RLUblank)×100%, where control refers to the 0.1% DMSO treatment group, and blank refers to the culture medium control. IC50 values and maximum inhibition rates of the compounds were calculated using a nonlinear regression function “Dose-Response-Inhibition” in Graphpad Prism 7.0.
A general note: Cellular ATP, detected with luciferase, serves as a proxy for viable cell number.
`Cc1nnc(-c2cccc(N3CCN(Cc4ccc(Cc5ccc6c7c(cccc57)C(=O)N6[C@H]5CCC(=O)NC5=O)cc4)CC3)n2)s1` [Example 35, (S)-3-(6-(4-((4-(6-(5-methyl-1,3,4-thiadiazol-2-yl)pyridin-2-yl)piperazin-1-yl)methyl)benzyl)-2-oxobenzo[cd]indol-1(2H)-yl)piperidin-2,6-dione]: the IC50 turned out to be 0.01 nM. This counts as picomolar.

Take `Cc1nnc(-c2cccc(N3CCN(Cc4ccc(Cc5ccc6c7c(cccc57)C(=O)N6[C@@H]5CCC(=O)NC5=O)cc4)CC3)n2)s1` [Example 36, (R)-3-(6-(4-((4-(6-(5-methyl-1,3,4-thiadiazol-2-yl)pyridin-2-yl)piperazin-1-yl)methyl)benzyl)-2-oxobenzo[cd]indol-1(2H)-yl)piperidin-2,6-dione]: the IC50 was determined as 0.02 nM.

Compound `Cc1ncn(-c2cccc(N3CCN(Cc4ccc(Cc5ccc6c7c(cccc57)C(=O)N6[C@@H]5CCC(=O)NC5=O)cc4)CC3)n2)n1` [Example 38, (R)-3-(6-(4-((4-(6-(3-methyl-1H-1,2,4-triazol-1-yl)pyridin-2-yl)piperazin-1-yl)methyl)benzyl)-2-oxobenzo[cd]indol-1(2H)-yl)piperidin-2,6-dione] gave a half-maximal inhibitory concentration (IC50) of 0.03 nM.

Regarding `O=C1CCC(N2C(=O)c3cccc4c(Cc5ccc(CN6CCN(c7ccnc(-n8cnc(C(F)(F)F)n8)n7)CC6)cc5)ccc2c34)C(=O)N1` (stereo not shown) [Example 39, 3-(2-oxo-6-(4-((4-(2-(3-(trifluoromethyl)-1H-1,2,4-triazol-1-yl)pyrimidin-4-yl)piperazin-1-yl)methyl)benzyl)benzo[cd]indol-1(2H)-yl)piperidin-2,6-dione], the half-maximal inhibitory concentration (IC50) turned out to be 0.01 nM.

Compound `O=C1CCC(N2C(=O)c3cccc4c(Cc5ccc(CN6CCN(C7CCN(c8ccnc(-n9cnc(C(F)(F)F)c9)n8)CC7)CC6)cc5)ccc2c34)C(=O)N1` (stereo not shown) [Example 40, 3-(2-oxo-6-(4-((4-(1-(2-(4-(trifluoromethyl)-1H-imidazol-1-yl)pyrimidin-4-yl)piperidin-4-yl)piperazin-1-yl)methyl)benzyl)benzo[cd]indol-1(2H)-yl)piperidin-2,6-dione] displayed a half-inhibitory concentration (IC50) of 0.01 nM.

Compound `Cc1ncn(-c2nccc(N3CCN(Cc4ccc(Cc5ccc6c7c(cccc57)C(=O)N6C5CCC(=O)NC5=O)cc4)CC3)n2)n1` (stereo not shown) [Example 41, 3-(6-(4-((4-(2-(3-methyl-1H-1,2,4-triazol-1-yl)pyrimidin-4-yl)piperazin-1-yl)methyl)benzyl)-2-oxobenzo[cd]indol-1(2H)-yl)piperidin-2,6-dione] showed an IC50 of 0.006 nM.

In turn, `Cc1nnc(-c2ncc(F)c(N3CCN(Cc4ccc(Cc5ccc6c7c(cccc57)C(=O)N6C5CCC(=O)NC5=O)cc4)CC3)n2)s1` (stereo not shown) [Example 42, 3-(6-(4-((4-(5-fluoro-2-(5-methyl-1,3,4-thiadiazol-2-yl)pyrimidin-4-yl)piperazin-1-yl)methyl)benzyl)-2-oxobenzo[cd]indol-1(2H)-yl)piperidin-2,6-dione] yielded a 50% inhibitory concentration (IC50) of 0.01 nM.

In turn, `O=C1CCC(N2C(=O)c3cccc4c(Cc5ccc(CN6CCN(c7ccnc(-n8cnc(Cl)c8)n7)CC6)cc5)ccc2c34)C(=O)N1` (stereo not shown) [Example 43, 3-(6-(4-((4-(2-(4-chloro-1H-imidazol-1-yl)pyrimidin-4-yl)piperazin-1-yl)methyl)benzyl)-2-oxobenzo[cd]indol-1(2H)-yl)piperidin-2,6-dione] returned an IC50 of 0.02 nM. This IC50 is about 2-fold higher than that of the compound before.

`N#Cc1cn(-c2nccc(N3CCN(Cc4ccc(Cc5ccc6c7c(cccc57)C(=O)N6C5CCC(=O)NC5=O)cc4)CC3)n2)cn1` (stereo not shown) [Example 44, 3-(6-(4-((4-(2-(4-cvano-1H-imidazol-1-yl)pyrimidin-4-yl)piperazin-1-yl)methyl)benzyl)-2-oxobenzo[cd]indol-1(2H)-yl)piperidin-2,6-dione] gave an IC50 of 0.01 nM.

Compound `Cc1ncn(-c2ncc(Cl)c(N3CCN(Cc4ccc(Cc5ccc6c7c(cccc57)C(=O)N6C5CCC(=O)NC5=O)cc4)CC3)n2)n1` (stereo not shown) [Example 45, 3-(6-(4-((4-(5-chloro-2-(3-methyl-1H-1,2,4-triazol-1-yl)pyrimidin-4-yl)piperazin-1-yl)methyl)benzyl)-2-oxobenzo[cd]indol-1(2H)-yl)piperidin-2,6-dione] returned a half-maximal inhibitory concentration (IC50) of 0.01 nM.
